Measurements: patent publication US20050069544A1, “Pharmaceutical composition and a method of treatment” (priority 1998, published 2005)
“Also recorded” adds a separate entry of the source.

Legend:
Format in all cases: cell-based, human
[1] = system: T-cells from AIHA patients; assay: Cell proliferation assay of PBMC/T-cells from autoimmune haemolytic anaemia patients; details: for proliferative T-cell response to RhD peptides: AIHA patients, FIG. 17A; for proliferative T-cell response to ce peptides: RhD-negative AIHA subjects, FIG. 17B
Experimental: (§1) PBMC were cultured in 100 μl volumes in microtitre plates at a concentration of 1.25×10^6 cells/ml in an Alpha Modification of Eagle's Medium (ICN Flow, Bucks UK) supplemented with 5% autologous serum, 4 mM L-Glutamine (Gibco, Paisley, UK), 100 U/ml sodium benzylpenicillin G (Sigma), 100 μg/ml streptomycin sulphate (Sigma), 5×10^−5M 2-mercaptoethanol (Sigma) and 20 mM HEPES pH7,2 (Sigma). All plates were incubated at 37° C. in a humidified atmosphere of 5% CO2/95% air. The cell proliferation in cultures was estimated from the incorporation of ^3H-Thymidine in triplicate wells 5 days after stimulation with antigen as described previously. Proliferation results are presented either as the mean CPM+/−SD of the triplicate samples, or as a stimulation index (SI), expressing the ratio of mean CPM in stimulated versus unstimulated control cultures. An S1>3 with CPM>1000 is interpreted as representing a positive response.
The experiments mentioned in Example 1.1 were repeated using blood from subjects suffering from autoimmune haemolytic anaemia.
These experiments can be carried out using other rhesus proteins, such as RhcE, Rhce, RhCe or RhCE protein. T-cells from RhD-negative subjects suffering AIHA were tested with the panel of ce peptides (Table 3).

[2] = system: PBMC from RhD alloimmunised donors; assay: Cell proliferation assay (3H-thymidine) of PBMC from RhD alloimmunised donors stimulated with RhD peptides; details: peptide 20 μg/ml, 5 days
Experimental: Five complete panels of 68 15-mer peptides, with 5 or 10 amino acid overlaps, were synthesized (Multiple Peptide Service, Cambridge Research Biochemicals, Cheshire, UK and Dept. Of Biochemistry, University of Bristol, UK), corresponding to the sequences of the 30 kD Rh proteins associated with expression of the RhD or RhcE/ce/Ce/CE blood group antigens respectively (Tables 1 to 5). An additional three peptide sequences is added to the panel of RhD peptides to account for the Ile to Met substitution described earlier (numbered from 69 to 71). The amino acid sequences for each of these proteins were deduced from cDNA analyses (FIG. 1). In order to ensure purity, each panel was synthesized by fluorenylmethoxycarbonyl chemistry on resin using a base-labile linker, rather than by conventional pin technology, and randomly selected peptides were screened for purity by HPLC and amino acid analysis.
Peripheral blood mononuclear cells (PBMC) from donors or patients were separated from fresh blood samples using Ficoll-Hypaque. The donors and patients had become alloimmunised with RhD-positive blood either through pregnancy, a blood transfusion or through immunization with the relevant blood.
as §1

[3] = system: PBMC from RhD-alloimmunised donors; assay: celELISA of cytokine production (IL-10, TGF-β1) by PBMC from RhD alloimmunised donors; details: for IL-10 production by PBMC: FIG. 3 and FIG. 10; for TGF-β1 production by PBMC: FIG. 3 and FIG. 11
Experimental: Cultured T-cells are stimulated with each of the epitopes given in Table 1 and after 5 days the responding cells were transferred to flat-bottomed microtitre plates (96-well Nunc-Immuno Maxisorp) coated with […] per well of monoclonal anti-cytokine capture antibody diluted in 0.05M alkaline carbonate coating buffer pH 9.6. Unbound capture antibody was removed by two washes with HBSS and non-specific binding potential blocked by incubation with 200 μl per well of phosphate buffered saline, pH 7.4 (PBS containing 3% BSA).
Five days after stimulation, lymphocyte cultures were mixed to resuspend the cells and duplicate 100 μl aliquots were transferred into wells coated with the respective capture antibody specific for IFN-γ, IL-10 or TGF-β. The plates coated with capture antibodies and layered by lymphocytes were then incubated for a further 24 hours at 37° C. in a humidified atmosphere of 5% CO2 and 95% air. After this incubation the PBMC were removed by four washes with 0.2% Tween/PBS. One hundred microlitre aliquots of the appropriate biotinylated monoclonal detection antibody in 0.2% BSA/PBS were then added to the wells and incubated at room temperature for 45 minutes.
After six washes with 0.5% Tween/PBS, 100 μl of 1:100,000 ExtrAvidin-alkaline phosphatase conjugate (Sigma) was then added to each of the wells and incubated at room temperature for 30 minutes. The ExtrAvidin conjugate was removed by eight washes with 0.2% Tween/PBS, and the plates developed using 100 μl per well of p-nitrophenyl phosphate (Sigma) 1.0 mg/ml in 0.05M carbonate alkaline buffer pH9.6. The absorbance at 405 nm was then measured using a Multiscan plate reader (Labsystems Basingstoke UK).
Cytokine secretion was measured by interpolation from a standard curve generated by incubating duplicate wells with doubling dilutions of recombinant human IFN-γ or IL-10 or TGF-β (Pharmingen). The standard curves were modelled by a smoothed cubic spline function applied to the absorbance reading and the cytokine concentrations after a quasilogarithmic transformation, where: quasiloge(z)=loge[z+{square root}[z^2+1]).
Using celELISA technique, the 68 RhD peptide panel was screened for the ability to induce IL-10 and TGF-β production for PBMC from a total of 19 samples from 12 different alloimmune donors. PMBC from 10 out of the 12 RhD-alloimmunised donors could produce IL-10 to at least one of the RhD peptides on at least one occasion, with a total of 194 significant IL-10 responses to the RhD peptides between all the donors. The RhD peptides that induced significant TGF-β or IL-10 and proliferative responses from PBMC in all the samples screened are summarised in FIGS. 10 and 11.

Row | Sequence | proliferative T-cell response to RhD peptides [1] | proliferative T-cell response to RhD peptides [2] | other results
1 | AALILLFYFFTHYDA (Residue 22- 36 RhD; listed as Homo sapiens) [compound 3] | exhibited a proliferative response |  | 
2 | ATIPSLSAMLGALFL (Residue 202-216 RhD; listed as Homo sapiens) [compound 33] | exhibited a proliferative response |  | 
3 | CLPLWALTLEAALIL (Residues 12-26 RhD; listed as Homo sapiens) [peptide 2] | exhibited a proliferative response | most commonly targeted | 
4 | FSLLGLLGEIIYIVL (Residue 332-346 RhD; listed as Homo sapiens) [compound 56] |  | most commonly targeted | IL-10 production by PBMC [3]: commonly induce the production of IL-10
5 | FSLLGLLGEITYIVL (Residue 332-346 Rhce; listed as Homo sapiens) [compound 195] |  |  | proliferative T-cell response to ce peptides [1]: exhibited a proliferative response
6 | GKVNLAQLVVMVLVE (Residue 132-146 RhD; listed as Homo sapiens) [compound 20] | exhibited a proliferative response |  | 
7 | GLISVGGAKYLPGCC (Residue 302-316 RhD; listed as Homo sapiens) [compound 50] | exhibited a proliferative response |  | 
8 | GTSCHLIPSPWLAMV (Residue 282-296 RhD; listed as Homo sapiens) [compound 47] | exhibited a proliferative response |  | 
9 | GTSCHLIPSPWLAMV (Residue 282-296 Rhce; listed as Homo sapiens) [compound 186] |  |  | proliferative T-cell response to ce peptides [1]: exhibited a proliferative response
10 | HSWSSVAFNLFMLAL (Residue 72-86 RhD; listed as Homo sapiens) [compound 10] |  | most commonly targeted | 
11 | KGLVASYQVGQDLTV (Residue 42-56 Rhce; listed as Homo sapiens) [compound 144] |  |  | proliferative T-cell response to ce peptides [1]: exhibited a proliferative response
12 | LAIVIALTSGLLTGL (Residue 372-386 RhD; listed as Homo sapiens) [compound 62] | exhibited a proliferative response |  | 
13 | LGFLTSSFRRHSWSS (Residue 62-76 RhD; listed as Homo sapiens) [compound 8] |  |  | TGF-β1 production by PBMC [3]: commonly induce the production of TGF-β1
14 | LGLVAGLISVGGAKY (Residue 297-311 RhD; listed as Homo sapiens) [compound 49] |  |  | IL-10 production by PBMC [3]: commonly induce the production of IL-10; also recorded: induce IL-10 production in the absence of a proliferative response or the production of IFN-γ or IL-4
15 | LLTGLLLNLKIWKAP (Residue 382-396 RhD; listed as Homo sapiens) [compound 63] |  | most commonly targeted | 
16 | SAVLAGGVAVGTSCH (Residue 272-286 RhD; listed as Homo sapiens) [peptide 46] |  | most commonly targeted | 
17 | THYDASLEDQKGLVA (Residues 32-46 Rhce; listed as Homo sapiens) [compound 143] |  |  | proliferative T-cell response to ce peptides [1]: exhibited a proliferative response
18 | TVAWCLPKPLPKGTE (Residue 182-196 Rhce; listed as Homo sapiens) [compound 168] |  |  | proliferative T-cell response to ce peptides [1]: exhibited a proliferative response
19 | VTALGNLRMVISNIF (Residue 147 - 161 RhD; listed as Homo sapiens) [compound 22] |  | most commonly targeted | 
20 | WLAMVLGLVAGLISV (Residue 292-306 RhD; listed as Homo sapiens) [peptide 48] |  |  | TGF-β1 production by PBMC [3]: commonly induce the production of TGF-β1; also recorded: induces TGF-β1 production in the absence of a proliferative response or the production of IFN-γ or IL-4
